These results are taken from US20070185094A1, “Novel 3-substitued-1,4-benzodiazepines” (ASTON UNIVERSITY, priority 2003, published 2007).

Data set [1] deals with MIA-PaCa2 cells. As to conditions: cited from earlier work; for IC50: MIA-PaCa2, read-out: IC50 cytotoxicity.
For data set [2], the system named is HT29-S-B6 cells. As to conditions: 10 μM, at least 3 days, exponential phase; cited from earlier work.
For data set [3], the system named is advanced pancreatic cancer. As to conditions: 18 patients; cited from earlier work.
For data set [4], the target named is T1, pancreatic and gallbladder CCK receptors (Homo sapiens, UniProt P32238).
T1 sequence (P32238 1-428): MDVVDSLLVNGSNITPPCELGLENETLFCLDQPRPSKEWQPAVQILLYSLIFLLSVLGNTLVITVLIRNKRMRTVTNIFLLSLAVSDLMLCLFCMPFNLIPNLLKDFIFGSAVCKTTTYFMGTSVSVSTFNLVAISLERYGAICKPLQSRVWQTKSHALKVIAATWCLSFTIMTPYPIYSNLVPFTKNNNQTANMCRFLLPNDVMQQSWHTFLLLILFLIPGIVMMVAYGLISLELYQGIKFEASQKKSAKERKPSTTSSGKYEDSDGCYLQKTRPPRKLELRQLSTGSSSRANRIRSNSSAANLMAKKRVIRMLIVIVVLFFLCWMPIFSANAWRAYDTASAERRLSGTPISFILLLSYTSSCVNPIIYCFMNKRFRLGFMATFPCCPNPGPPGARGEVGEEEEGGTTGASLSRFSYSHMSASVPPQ
As to conditions: cited from earlier work.

Data set [5] deals with CCKB receptor. As to conditions: cited from earlier work.
Data set [6] has as its target T2, CCKB receptor (Cavia porcellus, UniProt H0VZC5).
T2 sequence (H0VZC5 1-426): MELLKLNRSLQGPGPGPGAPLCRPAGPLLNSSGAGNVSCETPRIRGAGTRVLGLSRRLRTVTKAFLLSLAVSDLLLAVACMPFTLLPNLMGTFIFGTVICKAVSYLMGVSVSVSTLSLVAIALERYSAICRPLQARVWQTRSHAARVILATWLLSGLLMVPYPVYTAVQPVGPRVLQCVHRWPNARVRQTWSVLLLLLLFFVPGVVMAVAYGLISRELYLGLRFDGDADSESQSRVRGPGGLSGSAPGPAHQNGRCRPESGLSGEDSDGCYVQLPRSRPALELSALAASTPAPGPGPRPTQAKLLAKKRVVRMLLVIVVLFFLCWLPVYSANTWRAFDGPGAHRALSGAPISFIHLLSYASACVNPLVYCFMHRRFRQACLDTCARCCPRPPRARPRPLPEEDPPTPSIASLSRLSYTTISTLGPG
Put plainly: 125I-CCK-8 receptor binding assay, CCKB (guinea pig cerebral cortex). The method, then:
CCKA and CCKB receptor binding assays were performed, by using guinea pig cerebral cortex (CCKB) or rat pancreas (CCKA). […]. J. Pharmacol., 269, 249-254]. Pancreatic membranes were prepared in a similar way but by Charpentier et al [(1988), Cyclic cholecystokinin analogues with high selectivity for central receptors., Proc Natl Acad Sci USA, 85, 1968-1972]. The […] CCK binding assay: Tissues were homogenised in ice cold sucrose (0.32 M, 25 ml) for 15 strokes at 500 rpm and centrifuged at 13000 rpm for 10 mins. The supernatant was re-centrifuged at 13000 rpm for 20 mins. The resulting pellet was re-dispersed to the required volume of buffer at 500 rpm and stored in aliquots at […].
(§1) The samples were incubated {with membranes (0.1 mg/ml)} in 20 mM Hepes, 1 mM EGTA, 5 mM MgCl2, 150 mm NaCl, 0.25 mg/ml bacitracin at pH 6.5 for 2 hrs at RT and then […] by centrifugation at 1100 rpm for 5 minutes. The membrane pellets were washed twice with water and the bound radioactivity was measured in a Packard Cobra Auto-gamma counter (B5005). All binding assays were carried out with L-363, 260 as an internal non-specific standard. Controls (no compound) were also added. All samples were made in duplicate and repeated twice. All compounds were initially screened for percentage inhibition at 20 μM.

Data set [7] deals with T3, CCKA receptor (Rattus norvegicus, UniProt P30551).
T3 construct: Pancreatic membranes were prepared in a similar way; from tissue; host or cells: rat pancreas membranes
T3 sequence (P30551 1-444): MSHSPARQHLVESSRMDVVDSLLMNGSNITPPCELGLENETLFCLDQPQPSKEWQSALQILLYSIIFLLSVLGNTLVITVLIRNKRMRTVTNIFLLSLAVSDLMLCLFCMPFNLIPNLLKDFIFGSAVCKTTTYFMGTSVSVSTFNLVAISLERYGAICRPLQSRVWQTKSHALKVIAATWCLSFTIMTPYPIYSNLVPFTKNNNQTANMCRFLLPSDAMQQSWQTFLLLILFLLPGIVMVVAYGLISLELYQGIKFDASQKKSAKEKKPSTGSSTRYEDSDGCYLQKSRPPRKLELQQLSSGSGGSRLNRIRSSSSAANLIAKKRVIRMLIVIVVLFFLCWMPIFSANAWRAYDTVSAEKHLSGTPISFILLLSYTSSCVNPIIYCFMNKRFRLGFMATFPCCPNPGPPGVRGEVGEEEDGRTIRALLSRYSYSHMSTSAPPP
Put plainly: 125I-CCK-8 receptor binding assay, CCKA (rat pancreas). The conditions noted are these: for Ratio CCKB:CCKA: ratio of IC50 values; for CCKA binding activity in words: dimethylanilines with at least one meta group. The protocol:
CCKA and CCKB receptor binding assays were performed, by using guinea pig cerebral cortex (CCKB) or rat pancreas (CCKA). Male guinea pig brain tissues were prepared according to the modified method described by Saita et al [(1994), Characterization of YM022: its CCKB/gastrin receptor binding profile and antagonism to CCK-8-induced Ca2+ mobilization., Eur. J. Pharmacol., 269, 249-254]. Pancreatic membranes were prepared in a similar way but by Charpentier et al [(1988), Cyclic cholecystokinin analogues with high selectivity for central receptors., Proc Natl Acad Sci USA, 85, 1968-1972]. The […] CCK binding assay: Tissues were homogenised in ice cold sucrose (0.32 M, 25 ml) for 15 strokes at 500 rpm and centrifuged at 13000 rpm for 10 mins. The supernatant was re-centrifuged at 13000 rpm for 20 mins. The resulting pellet was re-dispersed to the required volume of buffer at 500 rpm and stored in aliquots at […].
as §1

For data set [8], the system named is CCKB/gastrin receptor. The conditions noted are these: cited from earlier work.
For data set [9] the following is noted: as the HCl salt; cited from earlier work.
For data set [10] the following is noted: mice, after intravenous injections; cited from earlier work.
For data set [11] the following is noted: satiated rats; cited from earlier work.

Structures are written as SMILES. Like-named read-outs stand apart in the source and are kept apart here.

As to `CN1C(=O)[C@@H](NC(=O)c2cc3ccccc3[nH]2)N=C(c2ccccc2)c2ccccc21` [Devazepide], the “factor of enhancement of sensitivity of MIA-PaCa2 cells to DDP” value in data set [1] was 3.5. In data set [1] (constant exposure schedule), the IC50 is 9.5 ± 1.4 µM. Moreover, in [2], the “enhancement of baseline production of carcinoembryonic antigens” value was 5 fold and the “enhancement of baseline production of gastric M1 mucins” value is 2-3 fold. Also, in data set [3], the “impact on tumor progression, pain, or nutrition” value was “failed to demonstrate any impact” and the “patients able to tolerate treatment” value is on record as 17 of 18.
Consider `CC(C)C[C@@H]1N[C@H]2N(C1=O)c1ccccc1[C@@]2(O)C[C@@H]1NC(=O)c2ccccc2-n2c1nc1ccccc1c2=O` [Asperlicin], for which the “affinity relative to proglumide” value in data set [4] was 300-400 times.
Take `Cc1cccc(NC(=O)NC2N=C(C3CCCCC3)c3ccccc3N(C)C2=O)c1` [L-708,474]: in [5], the IC50 was 0.00028 µM and the “selectivity for CCKB receptors over CCKA” value was 6,500 fold.
Consider `O=C1Nc2ccc(Cl)cc2C(c2ccccc2)=NC1Nc1ccc([N+](=O)[O-])cc1` (centres unmarked) [Example 37], for which the IC50 in [6] (IC50 CCKB, Table 3) is 8.5 µM; in [7] (Table 3), above 20 µM.
As to `Cc1cccc(NC(=O)NC2N=C(c3ccccc3)c3ccccc3N(CC(=O)c3ccccc3C)C2=O)c1` (centres unmarked) [YM022], the CCKA/CCKB ratio entry in [8] is listed as “about 1300”. Besides, the IC50 in data set [8] (read-out: IC50 CCKB/gastrin receptor affinity) was 0.00011 µM.
Turning to `O=C1Nc2ccc(Cl)cc2C(c2ccccc2)=NC1Nc1cccc(Cl)c1` (centres unmarked) [Example 39, 7-chloro-3-(3-chloroanilino)-5-phenyl-1,3-dihydro-2H-1,4-benzodiazepin-2-one], the IC50 in [6] (IC50 CCKB, Table 3) worked out at 6.2 µM; in [7], 0.27 µM. For the same compound, the “Ratio CCKB:CCKA” value in data set [7] (Table 3) worked out at 23.
`N.N.[Cl][Pt][Cl]` [DDP, cisplatin]: the IC50 in [1] (1-h exposure) was 35.3 ± 3.2 µM.
As to `O=C1Nc2ccc(Cl)cc2C(c2ccccc2)=NC1Nc1ccccc1Cl` (centres unmarked) [Example 38], the IC50 is 9.3 µM in [6] (IC50 CCKB, Table 3) and above 20 µM in data set [7] (Table 3).
With `Cc1cc(C)cc(NC2N=C(c3ccccc3)c3cc(Cl)ccc3NC2=O)c1` (centres unmarked) [Example 50], the IC50 in data set [6] (IC50 CCKB, Table 3) turned out to be 2.9 µM. In [7] (Table 3), the IC50 is 0.009 µM and the “Ratio CCKB:CCKA” value is given as 322. Also, the “CCKA binding activity in words” value in data set [7] is “equally active”.
For `CCN(c1cccc(C)c1)C1N=C(c2ccccc2)c2cc(Cl)ccc2NC1=O` (centres unmarked) [Example 56], the IC50 came out at 0.65 µM in data set [6] (IC50 CCKB, Table 3) and 0.33 µM in data set [7] (Table 3). Moreover, the “Ratio CCKB:CCKA” value in data set [7] (Table 3) was 2.
Take `Cc1cccc(NC(=O)NC2N=C(N3CC4CCC(C4)C3)c3ccccc3N(C)C2=O)c1` [L-740,093]: in data set [9], the “water solubility compared to L-365,260” value is given as “one hundred fold improved”.
As for `Cc1cccc(NC(=O)N[C@@H]2N=C(c3ccccc3)c3ccccc3N(C)C2=O)c1` [L-365,260], in [5], the IC50 was 0.0085 µM, the “affinity for gastrin/CCKB receptors relative to pancreatic CCKA” value was 80 fold and the “selectivity for CCKB receptors over CCKA” value is 87 fold. In addition, the brain uptake in data set [10] was below 0.8 % dose/gram. Also, the “potency relative to Devazepide in increasing feeding frequency” value in data set [11] is 100 times.
Consider `Cc1cccc(N(C)C2N=C(c3ccccc3)c3cc(Cl)ccc3NC2=O)c1` (centres unmarked) [Example 55, 7-chloro-3-(3-dimethylanilino)-5-phenyl-1,3-dihydro-2H-1,4-benzodiazepin-2-one], for which the IC50 worked out at 0.07 µM in data set [6] (IC50 CCKB) and 0.008 µM in [7]. For the same compound, the “Ratio CCKB:CCKA” value in data set [7] (Table 3) was determined as 9.
For `Cc1ccc(NC2N=C(c3ccccc3)c3cc(Cl)ccc3NC2=O)cc1` (centres unmarked) [Example 46], the IC50 worked out at 4.6 µM in data set [6] (IC50 CCKB, Table 3) and 0.29 µM in [7] (Table 3). In addition, the “Ratio CCKB:CCKA” value in [7] (Table 3) was 16.
In the case of `COc1ccccc1NC1N=C(c2ccccc2)c2cc(Cl)ccc2NC1=O` (centres unmarked) [Example 41], the IC50 in data set [6] (IC50 CCKB, Table 3) is 1.5 µM; in [7] (Table 3), above 20 µM.
With `Cc1cccc(C)c1NC1N=C(c2ccccc2)c2cc(Cl)ccc2NC1=O` (centres unmarked) [Example 47], the IC50 in [6] (IC50 CCKB, Table 3) was above 10 µM; in data set [7] (Table 3), 10 µM.
On to `CN(c1ccccc1)C1N=C(c2ccccc2)c2cc(Cl)ccc2NC1=O` (centres unmarked) [Example 54], for which the IC50 was found to be 0.15 µM in data set [6] (IC50 CCKB, Table 3) and 0.014 µM in data set [7]. In data set [7] (Table 3), the “Ratio CCKB:CCKA” value was determined as 11.
Consider `Cc1cccc(N(C)C2N=C(c3ccccc3)c3cc(Cl)ccc3N(CC(=O)C(C)(C)C)C2=O)c1` (racemic) [Example 64, 7-chloro-1-(3,3-dimethyl-2-oxobutyl)-3-(3-dimethylanilino)-5-phenyl-1,3-dihydro-2H-1,4-benzodiazepin-2-one], for which the IC50 in data set [6] (read-out: IC50 CCKB) was around 0.008 µM; in [7], around 0.024 µM.
The compound `Cc1cccc(NC2N=C(c3ccccc3)c3cc(Cl)ccc3NC2=O)c1C` (centres unmarked) [Example 49] displayed an IC50 in [6] (IC50 CCKB, Table 3) of 6 µM. Further, in [7] (Table 3), the IC50 is 0.018 µM and the “Ratio CCKB:CCKA” value is reported as 333. In addition, the “CCKA binding activity in words” value in [7] is recorded as “equally active”.
On to `Cc1ccc(NC(=O)NC2N=C(C3CCCCC3)c3ccccc3N(C)C2=O)cc1Nc1nnn[nH]1` [L-737,425], for which the CCKA/CCKB ratio in data set [5] is listed as 37000.
For `Cc1ccc(NC2N=C(c3ccccc3)c3cc(Cl)ccc3NC2=O)cc1C` (centres unmarked) [Example 48], the IC50 in [6] (IC50 CCKB, Table 3) is 0.92 µM. For the same compound, in data set [7] (Table 3), the IC50 came out at 0.015 µM and the “Ratio CCKB:CCKA” value is reported as 61. Also, the “CCKA binding activity in words” value in [7] is given as “equally active”.
